Experiment [1] concerns GH3 pituitary tumor cells. The experiment can be described thus: Tumor necrosis in GH3 tumors (prolactinomas) after CA4P (H&E histology, image analysis). The format is in vivo, rat. The protocol: (§1) Eighteen female Wistar Furth rats (Charles River, France), weighing approximately 130-140 g, were inoculated subcutaneously in the flanks with 1×10^6 GH3 pituitary tumor cells. Tumors were typically used for experimentation when they reached approximately 1 cm in diameter, or 300-1000 mm^3. Blood was taken from the tail vein of each rat 24 h before treatment with 100 mg/kg of vascular disrupting agent, CA4P, formulated in 20% of 5% aqueous sodium bicarbonate in 80% phosphate buffered saline. The CA4P was administered as a bolus injection through the tail vein. 24 h or 48 h after treatment a further blood sample was taken from the tail vein and the rats euthanized. Tumors were excised, fixed in formalin and stained with H&E for histology. Necrosis was determined by image analysis (Image J).

Experiment [2] relates to GH3 pituitary tumor cells. Description: Prolactin and growth hormone (ELISA) in GH3 tumor-bearing rats treated with CA4P. It is filed as in vivo, rat. Set-up: tumor GH pre- / tumor GH post-: unit not given beside the values. The note with it: for Growth Hormone tumor-derived: historical background 46 ng/ml subtracted; for Prolactin tumor-derived: historical basal level 26 ng/ml subtracted; for GH % decrease: tumor-derived GH. As to the method: as §1
Prolactin and growth hormone were measured using commercial ELISA's (SPI/BIO Bertin Pharma/Cayman kits sourced from Bioquote Limited, York, UK). Tumor-derived prolactin levels were calculated assuming a historical basal level of 26 ng/ml. […] Tumor-derived growth hormone levels were calculated by subtracting a historical value for background growth hormone of 46 ng/ml. […] All measurements for the control group were performed 24 hours after injection of saline.
A general note: In an ELISA, binding on a coated surface is turned into a signal by an enzyme label.

For experiment [3], the system named is Pancreatic Endocrine Tumors. Description: Serum insulin (ELISA) in Pdx1-Cre:Men1floxed/floxed mice treated with CA4P. The format is in vivo. The protocol:
Eight Pdx1-Cre:Men1floxed/floxed mice (described in Shen et al. Cancer Res. 2009, 69(5):1858-66) were divided into treated group (n=4) and control group (n=4). In an ongoing experiment, the mice from the treated group and control group were injected i.p. daily with CA4P (100 mg/kg) and saline, respectively, for three days monthly. The mice underwent a 24 h fast prior to collecting whole blood via a retro-orbital bleeding technique weekly at pre- and post-treatment. Glucose levels were monitored by enzymatic colorimetric assay. All mice underwent a microPET/CT scan monthly. Anti-tumor activity was measured by standardized-uptake value (SUV) analysis. All mice were weighed three times per week as an indicator of toxicity.

In experiment [4] the test system is GH3 pituitary tumor cells. Description: Tumor necrosis in GH3 rat pituitary tumors after ZD6126 (H&E histology, image analysis). The format is in vivo. The note with it: individual rats; 24 h after 50 mg/kg ZD6126 bolus tail vein. As to the method: (§2) Four female Wistar Furth rats, weighing approximately 160 g, were inoculated subcutaneously in the flanks with GH3 pituitary tumor cells. Tumors were typically used for experimentation when they reached approximately 1000-3000 mm^3. Blood was taken from the tail vein of each rat 24 h before treatment with 50 mg/kg of vascular disrupting agent, ZD6126, formulated in 20% of 5% aqueous sodium bicarbonate in 80% phosphate buffered saline. The vascular disrupting agent was administered as a bolus injection through the tail vein. 24 h after treatment a further blood sample was taken from the tail vein and the rats euthanized. Tumors were excised, fixed in formalin and stained with H&E for histology. Necrosis was determined by image analysis (Image J). Blood samples were analyzed for prolactin and growth hormone at by ELISA using kits supplied by SPIbio.

Experiment [5] has as its system GH3 pituitary tumor cells. The experiment can be described thus: Circulating growth hormone and prolactin (ELISA) in GH3 tumor-bearing rats treated with ZD6126. The format is in vivo, rat. Details: Growth Hormone pre / Growth Hormone post / Prolactin pre / Prolactin post: unit not given beside the values. The protocol: as §2
Since control animals had significant levels of both hormones (within the normal range) and since the VDA could not be expected to reduce normal host hormone production it might be reasonable to subtract a figure from each reading to allow for the persisting host-derived hormone. Although data on normal hormone levels were derived from a single control (non-tumor bearing) animal, the values are very much in agreement with those reported in the literature. Subtracting this value would give a rough estimate of the reduction in rats 1 and 2 of tumor-derived growth hormone of 72% and 40% and a reduction in tumor-derived prolactin of 65% and 33% respectively.

A further experiment deals with carcinoid metastases. The note with it: compared with 55% for hepatic artery embolization; cited from earlier work.
Another experiment deals with neuroendocrine tumor. The note with it: prolonged treatment, in combination with octreotide (Yao et al. 2008); cited from earlier work.
The mark [6] stands for this setting: 24 h after 100 mg/kg CA4P, individual rats.
The mark [7] stands for this setting: 48 h after 100 mg/kg CA4P, individual rats.
[8] abbreviates: 24 h after 50 mg/kg ZD6126, individual rats, ±SD.
[9] abbreviates: baseline, blood 24 h before ZD6126 treatment, individual rats, ±SD.
Setting [10] is: pre vs 24 h after 50 mg/kg ZD6126, individual rats.
Setting [11] is: rats 1 and 2, rough estimate after subtracting value of tumor-free control.

“And” between values parts separate entries of the source, which are not always exact repeats. Identical values can stand only once.

With `COc1ccc(/C=C\c2cc(OC)c(OC)c(OC)c2)cc1OP(=O)(O)O` [CA4P, combretastatin A-4 phosphate], the “% tumor necrosis” value in experiment [1] (24 h after 100 mg/kg CA4P, group mean) was 43.7 ± 29.6%; in experiment [1] (setting [6]), 83% and 58% and 3% and 59% (2×); in experiment [1] (48 h after 100 mg/kg CA4P, group mean), 61.7 ± 27.4%; in experiment [1] (setting [7]) it was 77% and 30%. The Prolactin total in experiment [2] (24 h after 100 mg/kg CA4P bolus tail vein, n=6) was 64.6 ± 19.1 ng/ml ± SD; in experiment [2] (48 h after 100 mg/kg CA4P, n=2), 54.3 ± 20.2 ng/ml ± SD. The “Growth Hormone tumor-derived” value in experiment [2] (24 h after 100 mg/kg CA4P, n=6) is given as 29.1 ± 13.6 ng/ml ± SD; in experiment [2] (48 h after 100 mg/kg CA4P, n=2), 20.8 ± 7.8 ng/ml ± SD. Also, the Prolactin tumor-derived is recorded as 38.6 ± 19.1 ng/ml ± SD in experiment [2] (24 h after 100 mg/kg CA4P, n=6) and 28.3 ± 20.2 ng/ml ± SD in experiment [2] (48 h after 100 mg/kg CA4P, n=2). The “tumor GH post-” value in experiment [2] (setting [6]) is 15.8 and 29.1 and 48.4 and 19.2 and 42.4; in experiment [2] (setting [7]) it was 15.3 and 26.3. Further, the GH % decrease in experiment [2] (setting [6]) was 63.2% and 36.0% and 21.6% and 50.0% and 6.2%; in experiment [2] (setting [7]), 64.1% and 35.2%. For the same compound, the “Growth Hormone total” value in experiment [2] (24 h after 100 mg/kg CA4P, n=6) is on record as 75.1 ± 13.6 ng/ml ± SD; in experiment [2] (48 h after 100 mg/kg CA4P, n=2), 66.8 ± 7.8 ng/ml ± SD. In addition, in experiment [2] (baseline before CA4P, individual rats, tumor-derived growth hormone), the “tumor GH pre-” value is 42.9 and 45.5 and 61.7 and 38.4 and 45.2 and 42.6 and 40.6. For the same compound, the “total and tumor-derived growth hormone after treatment (in words)” value in experiment [2] (p<0.03, one-tailed t-test) is listed as “statistically lower amount”. Further, the “total and tumor-derived prolactin after treatment (in words)” value in experiment [2] (p<0.04, one-tailed T-test) is “statistically lower amount”. The “Serum Insulin” value in experiment [3] (Day 0 (baseline), CA4P group n=4, P vs PBS 0.6720) is 3.695 ± 0.669 µg/L; in experiment [3] (Day 4, CA4P 100 mg/kg i.p. daily for three days, 24 h fast, P vs PBS 0.3699), 3.060 ± 1.037 µg/L; in experiment [3] (Day 11, CA4P 100 mg/kg i.p. daily for three days, 24 h fast, P vs PBS 0.0350) it was 2.495 ± 0.8722 µg/L.

For the compound `COc1cc2c(c(OC)c1OC)-c1ccc(OP(=O)(O)O)cc1[C@@H](NC(C)=O)CC2` [ZD6126], in experiment [4], the “% necr. (tumor necrosis)” value is 39% and 42% and little or no necrosis and 0%. Moreover, in experiment [5] (setting [8]), the “Growth Hormone post” value is 91 ± 7 and 102 ± 4 and 204 ± 14 and 171 ± 11; the Prolactin post was 90 ± 2 and 78 ± 3 and 129 ± 5 and 52 ± 1. Further, in experiment [5] (setting [9]), the “Growth Hormone pre” value is 214 ± 11 and 139 ± 8 and 193 ± 4 and 146 ± 4; the Prolactin pre is 211 ± 28 and 104 ± 3 and 134 ± 17 and 53 ± 3. In experiment [5] (setting [10]), the “Growth Hormone Δ (percent reduction)” value is 57 and 26 and −5 and −16; the “Prolactin Δ (percent reduction)” value is 57 and 24 and 4 and 1. Also, in experiment [5] (setting [11]), the “reduction in tumor-derived prolactin” value is ~65% and ~33%; the “reduction of tumor-derived growth hormone” value was ~72% and ~40%.

Take `CO[C@H]1C[C@@H]2CC[C@@H](C)[C@@](O)(O2)C(=O)C(=O)N2CCCC[C@H]2C(=O)O[C@H]([C@H](C)C[C@@H]2CC[C@@H](OCCO)[C@H](OC)C2)CC(=O)[C@H](C)/C=C(\C)[C@@H](O)[C@@H](OC)C(=O)[C@H](C)C[C@H](C)/C=C/C=C/C=C/1C` [everolimus]: the “response rate (Phase II trials)” value in the experiment on carcinoid metastases is 13%.

As to `COc1cc2ncnc(Nc3ccc(F)c(Cl)c3)c2cc1OCCCN1CCOCC1` [gefitinib], the “response rate (Phase II trials)” value with carcinoid metastases is on record as 2%.

Take `Cc1ccc(NC(=O)c2ccc(CN3CCN(C)CC3)cc2)cc1Nc1nccc(-c2cccnc2)n1` [imatinib]: the “response rate (Phase II trials)” value in the experiment on carcinoid metastases is recorded as 4%.

As to `CNC(=O)c1cc(Oc2ccc(NC(=O)Nc3ccc(Cl)c(C(F)(F)F)c3)cc2)ccn1` [sorafenib], the “response rate (Phase II trials)” value in the experiment with carcinoid metastases is on record as 10%.

Take `Clc1ccc(Nc2nnc(Cc3ccncc3)c3ccccc23)cc1` [valatinib]: the “response rate (Phase II trials)” value in the experiment on carcinoid metastases is on record as 0%.

As for bevacizumab: anti-VEGF antibody, the “response rate (Phase II trials)” value in the experiment with carcinoid metastases is given as 18%. Besides, in the experiment on neuroendocrine tumor, the “neuroendocrine tumor patients achieving a meaningful reduction in urinary 5-HIAA” value is on record as 19% and the “patients achieving a reduction in plasma levels of chromogranin A” value is 6%.

The values are drawn from patent US20150141349A1, “Method and Composition for Alleviating Tumor Symptoms” (Angiogene Pharmaceuticals Ltd., priority 2012, published 2015).
